In US8476265B2, “Compounds-801” (AstraZeneca AB, priority 2010, dated 2013) one finds inhibition and percent of formoterol maximum response data, which are given here for twelve compounds.

The inhibition is the drop in the measured response relative to a control, in per cent.

The target of experiment [1] is T1, human muscarinic acetylcholine M3 receptor (Homo sapiens, UniProt P20309).
T1 construct: expressed in transfected cells; host or cells: CHO-K1 (Chinese Hamster Ovary) cell membranes
Nature of the experiment: Muscarinic 3 receptor binding assay ([3H]NMS competition, SPA), single concentration 1 μM. As to conditions: 1 μM compound; % inhibition specific [3H]-NMS binding. The method, then: The following experimental procedure was used to determine the M3% inhibition at 1 μM of the compounds of Examples 99-175
Muscarinic 3 Receptor Binding Assay
The activity (% inhibition specific binding) of compounds on the M3 receptor is determined by competition binding of [^3H]N-methyl scopolamine (NMS) to CHO-K1 (Chinese Hamster Ovary) cell membranes expressing the human muscarinic acetylcholine M3 receptor (M3-ACh) in a scintillation proximity assay (SPA) format. SPA beads are precoated with membranes and then incubated at 2 mg of beads per well with 1 μM compound of the invention, [^3H]NMS at 0.1 nM, quarter Kd (experimentally determined dissociation constant) and assay buffer (20 mM HEPES pH 7.4 containing 5 mM MgCl2 and 0.1% (w/v) bovine serum albumin). The assay is conducted in a final volume of 200 μL, in the presence of 1% (v/v) dimethyl sulphoxide (DMSO). Total binding of [^3H]NMS is determined in the absence of competing compound and non-specific binding of [^3H]NMS is determined in the presence of 1 μM atropine. The plates are incubated for 16 hours at room temperature and then read on Wallac Microbeta™ using a normalised ^3H protocol. The compound activity at 1 μM, defined as % inhibition specific [^3H]-NMS binding, is determined.

Another experiment deals with T2, Adrenergic β2 (Homo sapiens, UniProt P07550).
T2 construct: Adherent H292 cells are removed from tissue culture flasks by treatment with Accutase™ cell detachment solution; endogenous in cells; host or cells: H292 cells
Nature of the experiment: Adrenergic β2 mediated cAMP production in H292 cells, single concentration 1 μM. The following applies: NCI-H292, 1 μM compound, cAMP as percentage of the maximum response generated by 1E-07M formoterol, read-out: β2 % effect @1 uM. Type of experiment: cell-based. The method, then: The following experimental procedure was used to measure the beta-2% effect at 1 μM for the compounds of Examples 99-175. Adrenergic p2 Mediated cAMP Production Cell Preparation
H292 cells are grown in 225 cm2 flasks incubator at 37° C., 5% CO2 in RPMI medium containing 10% (v/v) FBS (foetal bovine serum) and 2 mM L-glutamine.
Compounds are prepared by an initial first dilution into DMSO to give 1 mM stock concentration. This is followed by a 1 in 10 dilution of the stock concentration (10 μl stock compound +90 μl DMSO) to give 0.1 mM compound. A compound addition plate is prepared by making a further 1 in 25 dilution in assay buffer (HBSS solution containing 10 mM HEPES pH7.4 and 5 mM glucose) containing 4% dimethylsulfoxide. The final compound concentration in assay is 1 μM.
Adherent H292 cells are removed from tissue culture flasks by treatment with Accutase™ cell detachment solution for 15 minutes. Flasks are incubated for 15 minutes in a humidified incubator at 37° C., 5% CO2. Detached cells are re-suspended in RPMI media (containing 10% (v/v) FBS and 2 mM L-glutamine) at 0.1×10^6 cells per mL. 10000 cells in 100 μL are added to each well of a tissue-culture-treated 96-well plate and the cells incubated overnight in a humidified incubator at 37° C., 5% CO2. The culture media is removed and cells are washed twice with 100 μL assay buffer and replaced with 50 μL assay buffer (HBSS solution containing 10 mM HEPES pH7.4 and 5 mM glucose). Cells are rested at room temperature for 20 minutes after which time 25 μL of rolipram (1.2 mM made up in assay buffer) is added. Cells are incubated with rolipram for 10 minutes after which time 25 μl test compounds are added and the cells are incubated for 60 minutes at room temperature. The final rolipram concentration in the assay is 300 μM and final vehicle concentration is 1% (v/v) dimethylsulphoxide. The reaction is stopped by removing supernatants, washing once with 100 μL assay buffer and replacing with 50 μL lysis buffer. The cell monolayer is frozen at −80° C. for 30 minutes (or overnight).
AlphaScreen™ cAMP Detection
The concentration of cAMP (cyclic adenosine monophosphate) in the cell lysate is determined using AlphaScreen™ methodology. The frozen cell plate is thawed for 20 minutes on a plate shaker then 10 μL of the cell lysate is transferred to a 96-well white plate. 40 μl of mixed AlphaScreen™ detection beads (containing equal volumes of donor beads (pre-incubated with biotinylated cAMP in the dark for 30 minutes) and acceptor beads is added to each well and the plate incubated at room temperature for 3 hours in the dark. The AlphaScreen™ signal is measured using an EnVision spectrophotometer (Perkin-Elmer Inc.) with the recommended manufacturer's settings. Concentration of cAMP produced per well were calculated with reference to the cAMP standard curve determined in the same experiment and expressed as a percentage of the maximum response generated by 1E-07M formoterol.
(Cyclic AMP is a second messenger, typically raised through Gs and lowered through Gi signalling.)

T1 sequence (P20309 whole entry): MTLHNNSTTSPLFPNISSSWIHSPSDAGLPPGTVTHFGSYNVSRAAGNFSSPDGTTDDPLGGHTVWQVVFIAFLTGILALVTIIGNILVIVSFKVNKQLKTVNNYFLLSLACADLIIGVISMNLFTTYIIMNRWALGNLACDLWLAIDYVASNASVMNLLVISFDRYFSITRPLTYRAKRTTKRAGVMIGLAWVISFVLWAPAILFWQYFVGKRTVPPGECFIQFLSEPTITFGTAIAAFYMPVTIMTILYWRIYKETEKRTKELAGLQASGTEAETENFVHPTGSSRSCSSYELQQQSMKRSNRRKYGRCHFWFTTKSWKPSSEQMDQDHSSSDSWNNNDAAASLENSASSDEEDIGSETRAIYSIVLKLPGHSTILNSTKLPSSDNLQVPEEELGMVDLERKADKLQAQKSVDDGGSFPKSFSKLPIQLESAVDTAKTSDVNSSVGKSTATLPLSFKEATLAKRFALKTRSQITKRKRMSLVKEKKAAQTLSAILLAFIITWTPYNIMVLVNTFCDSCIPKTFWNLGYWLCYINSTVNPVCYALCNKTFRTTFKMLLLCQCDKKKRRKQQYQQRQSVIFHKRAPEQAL
T2 sequence (P07550 whole entry): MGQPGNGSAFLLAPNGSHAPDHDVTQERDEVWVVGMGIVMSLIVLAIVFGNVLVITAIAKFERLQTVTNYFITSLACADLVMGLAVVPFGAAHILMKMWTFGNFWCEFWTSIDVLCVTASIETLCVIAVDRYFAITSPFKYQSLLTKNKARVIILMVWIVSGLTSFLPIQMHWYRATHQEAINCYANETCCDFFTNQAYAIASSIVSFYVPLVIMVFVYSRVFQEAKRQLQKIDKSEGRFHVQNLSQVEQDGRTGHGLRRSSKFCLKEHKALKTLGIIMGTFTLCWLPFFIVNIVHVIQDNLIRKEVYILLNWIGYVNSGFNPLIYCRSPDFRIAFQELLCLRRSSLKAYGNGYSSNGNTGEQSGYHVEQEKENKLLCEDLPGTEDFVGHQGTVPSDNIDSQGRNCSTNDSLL

In the case of `O=C1COc2c(CCNCCN(C(=O)CCOCCc3cccc(CN4CCC5(CC4)CN(C(=O)c4ccc(-n6cccn6)nc4)CCO5)c3)C3CCCCC3)ccc(O)c2N1` [Example 112, 3-(3-((4-(6-(1H-Pyrazol-1-yl)nicotinoyl)-1-oxa-4,9-diazaspiro[5.5]undecan-9-yl)methyl)phenethoxy)-N-cyclohexyl-N-(2-(2-(5-hydroxy-3-oxo-3,4-dihydro-2H-benzo[b][1,4]oxazin-8-yl)ethylamino)ethyl)propanamide], the inhibition at 1 µM in experiment [1] was 98%. For the same compound, the percent of formoterol maximum response at 1 µM on Adrenergic β2 is 105%.
Regarding `O=C1COc2c(CCNCCN(C(=O)CCOCCc3cccc(CN4CCC5(CC4)CN(C(=O)C4(c6ccccc6)CC4)CCO5)c3)C3CCCCC3)ccc(O)c2N1` [Example 113, N-Cyclohexyl-N-(2-(2-(5-hydroxy-3-oxo-3,4-dihydro-2H-benzo[b][1,4]oxazin-8-yl)ethylamino)ethyl)-3-(3-((4-(1-phenylcyclopropanecarbonyl)-1-oxa-4,9-diazaspiro[5.5]undecan-9-yl)methyl)phenethoxy)propanamide], the inhibition at 1 µM in experiment [1] turned out to be 100%. Besides, the percent of formoterol maximum response at 1 µM at Adrenergic β2 is 112%.
In the case of `COC1CCCC(C(=O)N2CCOC3(CCN(Cc4cccc(CCOCCC(=O)N(CCNCCc5ccc(O)c6c5OCC(=O)N6)C5CCCCC5)c4)CC3)C2)C1` (stereo not drawn) [Example 114, N-Cyclohexyl-N-(2-(2-(5-hydroxy-3-oxo-3,4-dihydro-2H-benzo[b][1,4]oxazin-8-yl)ethylamino)ethyl)-3-(3-((4-(3-methoxycyclohexanecarbonyl)-1-oxa-4,9-diazaspiro[5.5]undecan-9-yl)methyl)phenethoxy)propanamide], the inhibition at 1 µM in experiment [1] amounted to 100%. In addition, on Adrenergic β2, the percent of formoterol maximum response at 1 µM turned out to be 106%.
With `O=C1COc2c(CCNCCN(C(=O)CCOCCc3cccc(CN4CCC5(CC4)CN(C(=O)CC46CC7CC(CC(O)(C7)C4)C6)CCO5)c3)C3CCCCC3)ccc(O)c2N1` [Example 116, N-Cyclohexyl-3-[2-[3-[[10-[2-(3-hydroxy-1-adamantyl)acetyl]-7-oxa-3,10-diazaspiro[5.5]undecan-3-yl]methyl]phenyl]ethoxy]-N-[2-[2-(5-hydroxy-3-oxo-4H-1,4-benzoxazin-8-yl)ethylamino]ethyl]propanamide], the inhibition at 1 µM in experiment [1] turned out to be 94%. Also, the percent of formoterol maximum response at 1 µM at Adrenergic β2 was determined as 80%.
In the case of `Cc1nc2cc(C(=O)N3CCOC4(CCN(Cc5cccc(CCOCCC(=O)N(CCNCCc6ccc(O)c7c6OCC(=O)N7)C6CCCCC6)c5)CC4)C3)ccc2[nH]1` [Example 117, N-Cyclohexyl-N-(2-(2-(5-hydroxy-3-oxo-3,4-dihydro-2H-benzo[b][1,4]oxazin-8-yl)ethylamino)ethyl)-3-(3-((4-(2-methyl-1H-benzo[d]imidazole-5-carbonyl)-1-oxa-4,9-diazaspiro[5.5]undecan-9-yl)methyl)phenethoxy)propanamide], the inhibition at 1 µM in experiment [1] came to 99%. In addition, the percent of formoterol maximum response at 1 µM at Adrenergic β2 came out at 90%.
Take `Cc1ncc(Br)cc1C(=O)N1CCOC2(CCN(Cc3cccc(CCOCCC(=O)N(CCNCCc4ccc(O)c5c4OCC(=O)N5)C4CCCCC4)c3)CC2)C1` [Example 118, 3-(3-((4-(5-Bromo-2-methylnicotinoyl)-1-oxa-4,9-diazaspiro[5.5]undecan-9-yl)methyl)phenethoxy)-N-cyclohexyl-N-(2-(2-(5-hydroxy-3-oxo-3,4-dihydro-2H-benzo[b][1,4]oxazin-8-yl)ethylamino)ethyl)propanamide]: the inhibition at 1 µM in experiment [1] came out at 96%. Further, the percent of formoterol maximum response at 1 µM on Adrenergic β2 came to 97%.
In the case of `O=C1COc2c(CCNCCN(C(=O)CCOCCc3cccc(CN4CCC5(CC4)CN(C(=O)c4n[nH]c6ccccc46)CCO5)c3)C3CCCCC3)ccc(O)c2N1` [Example 120, 3-(3-((4-(1H-Indazole-3-carbonyl)-1-oxa-4,9-diazaspiro[5.5]undecan-9-yl)methyl)phenethoxy)-N-cyclohexyl-N-(2-(2-(5-hydroxy-3-oxo-3,4-dihydro-2H-benzo[b][1,4]oxazin-8-yl)ethylamino)ethyl)propanamide], the inhibition at 1 µM in experiment [1] is 101%. On Adrenergic β2, the percent of formoterol maximum response at 1 µM worked out at 97%.
Turning to `O=C1COc2c(CCNCCN(C(=O)CCOCCc3cccc(CN4CCC5(CC4)CN(C(=O)c4cnccc4C(F)(F)F)CCO5)c3)C3CCCCC3)ccc(O)c2N1` [Example 121, N-Cyclohexyl-N-(2-(2-(5-hydroxy-3-oxo-3,4-dihydro-2H-benzo[b][1,4]oxazin-8-yl)ethylamino)ethyl)-3-(3-((4-(4-(trifluoromethyl)nicotinoyl)-1-oxa-4,9-diazaspiro[5.5]undecan-9-yl)methyl)phenethoxy)propanamide], in experiment [1], the inhibition at 1 µM is 88%. On Adrenergic β2, the percent of formoterol maximum response at 1 µM was found to be 84%.
As to `O=C1COc2c(CCNCCN(C(=O)CCOCCc3cccc(CN4CCC5(CC4)CN(C(=O)c4ccc(-n6cccn6)cc4)CCO5)c3)C3CCCCC3)ccc(O)c2N1` [Example 122, 3-(3-((4-(4-(1H-Pyrazol-1-yl)benzoyl)-1-oxa-4,9-diazaspiro[5.5]undecan-9-yl)methyl)phenethoxy)-N-cyclohexyl-N-(2-(2-(5-hydroxy-3-oxo-3,4-dihydro-2H-benzo[b][1,4]oxazin-8-yl)ethylamino)ethyl)propanamide], the inhibition at 1 µM in experiment [1] came out at 84%. Besides, the percent of formoterol maximum response at 1 µM on Adrenergic β2 is 87%.
Consider `O=C1COc2c(CCNCCN(C(=O)CCOCCc3cccc(CN4CCC5(CC4)CN(C(=O)c4[nH]nc6c4CCCC6)CCO5)c3)C3CCCCC3)ccc(O)c2N1` [Example 123, N-Cyclohexyl-N-(2-(2-(5-hydroxy-3-oxo-3,4-dihydro-2H-benzo[b][1,4]oxazin-8-yl)ethylamino)ethyl)-3-(3-((4-(4,5,6,7-tetrahydro-2H-indazole-3-carbonyl)-1-oxa-4,9-diazaspiro[5.5]undecan-9-yl)methyl)phenethoxy)propanamide], for which the inhibition at 1 µM in experiment [1] worked out at 99%. Moreover, the percent of formoterol maximum response at 1 µM at Adrenergic β2 was determined as 97%.
In the case of `O=C1COc2c(CCNCCN(C(=O)CCOCCc3cccc(CN4CCC5(CC4)CN(C(=O)Cc4noc6ccccc46)CCO5)c3)C3CCCCC3)ccc(O)c2N1` [Example 124, 3-(3-((4-(2-(Benzo[d]isoxazol-3-yl)acetyl)-1-oxa-4,9-diazaspiro[5.5]undecan-9-yl)methyl)phenethoxy)-N-cyclohexyl-N-(2-(2-(5-hydroxy-3-oxo-3,4-dihydro-2H-benzo[b][1,4]oxazin-8-yl)ethylamino)ethyl)propanamide], the inhibition at 1 µM in experiment [1] was found to be 100%. On Adrenergic β2, the percent of formoterol maximum response at 1 µM is 101%.
Consider `O=C1COc2c(CCNCCN(C(=O)CCOCCc3cccc(CN4CCC5(CC4)CN(C(=O)Cn4cnc6ccccc64)CCO5)c3)C3CCCCC3)ccc(O)c2N1` [Example 125, 3-(3-((4-(2-(1H-Benzo[d]imidazol-1-yl)acetyl)-1-oxa-4,9-diazaspiro[5.5]undecan-9-yl)methyl)phenethoxy)-N-cyclohexyl-N-(2-(2-(5-hydroxy-3-oxo-3,4-dihydro-2H-benzo[b][1,4]oxazin-8-yl)ethylamino)ethyl)propanamide], for which the inhibition at 1 µM in experiment [1] was found to be 93%. The percent of formoterol maximum response at 1 µM at Adrenergic β2 was 114%.
